From patent US10660933B2, “Compositions and methods for inhibition of bacterial infections in human endocervix” (priority 2015, dated 2020)
“Also recorded” adds a separate entry of the source. Ends that are not written are not given here.

How the values were obtained:
[1] = test system: cytoplasmic Ca2+; assay: Calcium imaging of Ng-inoculated polarized epithelial cells (FluoForte, Fluo-4); type: cell-based, human; conditions: MS11Opa+ and MS11ΔOpa-inoculated polarized epithelial cells, 4 h; 2APB 10 μM, BAPTA 50 μM
Excerpt: Ng inoculation induces Ca^2+-dependent redistribution of active NMII in polarized epithelial cells. A major upstream signaling molecule of MLCK is calmodulin that is activated by Ca^2+. To investigate if Ca^2+ is involved in Ng induced redistribution of active NMII, we determined if Ng inoculation would induce Ca^2+ flux in polarized epithelial cells. We used two Ca^2+ indicators, FluoForte (FIGS. 7A and 7B) and Fluo-4 (FIG. 11) to determine the cytoplasmic Ca^2+ level. Polarized T84 (FIGS. 7A and 7B, and FIG. 11A and FIG. 11B) and HEC-1-B (FIG. 11C and FIG. 11D) were incubated apically with MS11Opa+ or MS11ΔOpa for 4 h. The cells were then loaded with the fluorescent Ca^2+ indicator, and the cell membrane marked by the membrane dye CellMask. Cells were imaged using 3D-CFM (FIG. 7A, and FIGS. 11A and 11C). The mean fluorescence intensity (MFI) of the Ca^2+ dyes in individual cells was measured to estimate the cytoplasmic level of Ca^2+ (FIG. 7B, and FIGS. 11B and 11D). […]
Calcium imaging. […] To quantify the intracellular Ca^2+ level, the cytoplasmic region of individual cells was manually selected based on the CellMask staining in randomly acquired confocal images, and the mean fluorescent intensity (MFI) of Fluoforte and Fluo-4 in the cytoplasmic region was measured using the NIH ImageJ software.

[2] = test system: phosphorylated myosin light chain (pMLC); assay: pMLC (active NMII) redistribution in Ng-inoculated polarized T84 cells (3D-CFM); type: cell-based, human; conditions: for accumulation of pMLC at Ng adherent sites / apical:lateral FIR of pMLC: polarized T84, Ng 6 h; for junction:non-junction FIR of pMLC: polarized T84, Ng 6 h (Y27632: MS11ΔOpa); for junction:non-junction FIR of pMLC / apical:lateral FIR of pMLC: ML-7 10 μM, PIK 100 μM, Y27632 10 μM, 2APB 10 μM, BAPTA 50 μM
Experimental: Ng induce and Opa suppresses the redistribution of active non-muscle myosin II in polarized and endocervical epithelial cells. […] We examined the cellular distribution of active NMII after 6-h incubation with Ng, using antibody specific for phosphorylated myosin light chain (pMLC) and 3D-CFM. In uninfected polarized T84 (FIGS. 5A and 5C) and HEC-1-B cells (FIG. 10), pMLC was primarily localized at the apical junction. The polarized distribution of pMLC at the apical surface was quantified by the FIR of pMLC at the apical to the lateral (Apical:Lateral) membrane areas in individual cells using CFM images scanning across the apical and basolateral surfaces (FIGS. 5A and 5B). The polarized distribution pMLC at the apical junction was quantified by the FIR of pMLC at the junction to non-junction (Junction:Non-junction) areas of the apical region using CFM images scanning through the apical junction (FIGS. 5C and 5D). The apical inoculation of MS11Opa+ and MS11ΔOpa caused significant increases in apical:lateral FIR in both polarized T84 (FIGS. 5A and 5B) and HEC-1-B cells (FIG. 10), compared to the no Ng control. There were also significant increases in the junction:non-junction FIR in infected polarized T84 cells, compared to non-infected cells (FIGS. 5C and 5D). […] We further noticed that NMII at the apical surface appeared to accumulate at Ng adherent sites (FIG. 5A, middle panels, arrows).
(§1) Immunofluorescence analysis of polarized epithelial cells. Cells were pretreated with or without NMII kinase inhibitors, Y27632 (10 μM, EMD Millipore), ML-7 (10 μM, EMD Millipore) and PIK (100 μM) or Ca2+ inhibitors, 2APB (10 μM, EMD Millipore) and BAPTA (50 μM, EMD Millipore) for 1 h, and incubated with Ng in the presence or absence of the inhibitors for 6 h. Cell were washed and fixed with 4% paraformaldehyde, permeabilized with 1% Triton X100, and stained with anti-E-cadherin (BD Bioscience), anti-pMLC (Cell Signaling Technology, Carlsbad, Calif.), anti-Ng antibodies, and DAPI for nuclei. Cells were analyzed by CFM. Images were acquired as Z-series of 0.37 μm slices, and 3D composites obtained. Epithelial exfoliation will be quantified using xz images as described for the tissue explants. The distribution of E-cadherin and pMLC was quantitatively analyzed by measuring the FIR at the apical junctional to the cytoplasmic area (from xy images) or at the apical to lateral surface area (from xz images) in individual cells.

[3] = test system: Neisseria gonorrhoeae MS11; assay: Ng adherence, invasion, and transmigration assays on polarized epithelial cells; type: cell-based; conditions: for transmigration of MS11ΔOpa across the polarized T84 monolayer / Ng invasion into polarized T84 cells (gentamicin resistance): 6 h; for transmigration of MS11ΔOpa across the polarized T84 monolayer: ML-7 10 μM, PIK 100 μM, 2APB 10 μM, Y27632 10 μM; for Ng adherence to polarized T84 cells / Ng invasion into polarized T84 cells (gentamicin resistance): MS11ΔOpa, with inhibitors; for Ng adherence to polarized T84 cells: 3 h
Experimental: Ng adherence, invasion, and transmigration assays. The assays were performed as previously described. Briefly, polarized epithelial cells that were pretreated with or without the inhibitors for 1 h were incubated apically with Ng at 37° C. for 3 h for adherence and 6 h for invasion and transmigration assays with or without the inhibitors. Ng in the basolateral media were cultured and counted as transmigrated bacteria. Cells were washed and lysed to count adherent Ng. Cells were treated with gentamicin, washed, and lysed to count bacteria that were resistant to gentamicin treatment as invaded Ng.

[4] = test system: polarized T84 cells; assay: Ng-induced exfoliation of polarized T84 monolayers (3D-CFM); type: cell-based, human; conditions: 6 h, inhibitor 1 h before and during, ML-7 10 μM, PIK 100 μM, Y27632 10 μM; for exfoliation of MS11ΔOpa-infected epithelial cells from T84 monolayers: 2APB 10 μM
Excerpt: (§2) To quantify epithelial exfoliation, the number of Ng associated cells localized on the top of the epithelial monolayer (exfoliated) and the total number of Ng associated epithelial cells was counted by visual inspection in each randomly acquired image, to determine the percentage of exfoliated cells. To estimate the level of Ng penetration into the subepithelium, the number of non-exfoliated epithelial cells (in clearly visible epithelial monolayers) with basal Ng staining and the total number of Ng associated epithelial cells were visually counted to calculate the percentage of infected epithelial cells with Ng penetration into the basolateral side. To evaluate the disruption of the apical junction, the number of Ng associated epithelial cells that lost continuously apical staining of the junctional protein ZO1 and the total number of Ng associated epithelial cells were visually counted to calculate the percentage of Ng associated epithelial cells with apical junction disassembly. To quantify the redistribution of pMLC, the fluorescence intensity ratios (FIR) of pMLC staining at the apical to lateral in individual epithelial cells were determined using average FI as previously described.
as §1

[5] = test system: polarized T84 cells; assay: Exfoliation of polarized T84 cells treated with inhibitors alone, without Ng; type: cell-based, human; conditions: no Ng inoculation, 6 h
Experimental: Polarized T84 cells were treated with inhibitors for 6 h, fixed, stained to visualize the cell nuclei, and imaged by 3D-CFM. The percentage of cell moving above the epithelial monolayer (dash lines) was determined from three independent experiments. Scale bar, 5 μm. *p≤0.05.
as §1

[6] = test system: Neisseria gonorrhoeae; assay: Ng growth; type: cell-based; conditions: FIG. 13
[7] = test system: human endocervical tissue explants; assay: Ng-induced epithelial exfoliation of human endocervical tissue explants (3D-CFM); type: cell-based; conditions: MS11ΔOpa, 24 h; ML-7 10 μM, PIK 100 μM
Experimental: (§3) Human endocervical tissue explants. The tissue explants were cultured as previously described. Endocervical tissues were obtained from patients undergoing voluntary hysterectomies and received within 24 h post-surgery. Samples were cut into ˜2.5 cm (L)×0.6 cm (W)×0.3 cm (H) pieces, incubated in CMRL-1066 (GIBCO, Gaithersburg, Md.) plus antibiotics for 24 h, and then switched to antibiotic-free media for 24 h.
(§4) Immunofluorescence analysis of human endocervical tissue explants. […] The tissue was fixed, embedded in gelatin, cryopreserved, sectioned crossing the apical and basolateral surfaces of the epithelium, stained for ZO1 (BD Bioscience), pMLC (Cell Signaling Technology, Beverly, Mass.), and Ng (51) by specific antibodies, and nuclei by DAPI (Life Technologies, Carlsbad, Calif.), and analyzed using CFM (Zeiss LSM 710, Carl Zeiss Microscopy LLC, Oberkochen, Germany). […]
To quantify epithelial exfoliation, the number of Ng associated cells localized on the top of the epithelial monolayer (exfoliated) and the total number of Ng associated epithelial cells was counted by visual inspection in each randomly acquired image, to determine the percentage of exfoliated cells. […] To quantify the redistribution of pMLC, the fluorescence intensity ratios (FIR) of pMLC staining at the apical to lateral in individual epithelial cells were determined using average FI as previously described.

[8] = test system: phosphorylated myosin light chain (pMLC); assay: pMLC redistribution in Ng-inoculated human endocervical tissue explants; type: cell-based; conditions: MS11ΔOpa-inoculated endocervical tissue explants, 24 h
Experimental: To explore the possibility of that Ng induced NMII redistribution occurs in vivo, we incubated human endocervical tissue explants with MS11ΔOpa for 24 h. Cryo-sections of the endocervical tissue were stained for pMLC, Ng and nuclei. In addition to its apical junction localization, pMLC was concentrated at the basal surface of the endocervical epithelial cells contacting with the basal membrane (FIG. 6A, upper panels). When incubated with MS11ΔOpa, there was a redistribution of pMLC from the basal to apical surface, resulting in a significant higher apical:lateral FIR in Ng inoculated tissue explants than that in no Ng control (FIG. 6), similar to what we observed in polarized T84 (FIGS. 5A and 5B) and HEC-1-B cells (FIG. 10). Furthermore, pMLC at the apical surface of the endocervical epithelial cells also concentrated at Ng adherent sites (FIG. 6A, second row, white arrows), but not at the membrane of cells neighboring exfoliating cells (FIG. 6A, second row, orange arrows). These observations confirm that Ng increase the relative amount of activated NMII at the apical surface of the endocervical epithelial cells in human tissue explants. […]
as §4
as §2, with “To quantify the redistribution of pMLC, the fluorescence intensity ratios (FIR) of pMLC staining at the apical to lateral in individual epithelial cells were determined using average FI as previously described.” left out

[9] = test system: Neisseria gonorrhoeae MS11ΔOpa; assay: Ng subepithelial penetration in human endocervical tissue explants (3D-CFM); type: cell-based
Experimental: as §3
Immunofluorescence analysis of human endocervical tissue explants. Individual endocervical tissue pieces were incubated with Ng at a MOI of ˜10 (based on the average number of endocervical epithelial cells in endocervical tissue pieces) in the presence or absence of the MLCK inhibitor ML-7 (10 μM, EMD Millipore) and PIK (100 μM) (54) on transwells for 24 h. Unassociated Ng were removed by extensive washes at 6 and 12 h. The tissue was fixed, embedded in gelatin, cryopreserved, sectioned crossing the apical and basolateral surfaces of the epithelium, stained for ZO1 (BD Bioscience), pMLC (Cell Signaling Technology, Beverly, Mass.), and Ng (51) by specific antibodies, and nuclei by DAPI (Life Technologies, Carlsbad, Calif.), and analyzed using CFM (Zeiss LSM 710, Carl Zeiss Microscopy LLC, Oberkochen, Germany). […]
as §2, with “To evaluate the disruption of the apical junction, the number of Ng associated epithelial cells that lost continuously apical staining of the junctional protein ZO1 and the total number of Ng associated epithelial cells were visually counted to calculate the percentage of Ng associated epithelial cells with apical junction disassembly.” left out

Row | Molecule | MFI of the Ca2+ indicators (cytoplasmic Ca2+ level) [1] | accumulation of pMLC at Ng adherent sites [2] | junction:non-junction FIR of pMLC [2] | apical:lateral FIR of pMLC [2] | transmigration of MS11ΔOpa across the polarized T84 monolayer [3] | Ng adherence to polarized T84 cells [3] | Ng invasion into polarized T84 cells (gentamicin resistance) [3] | exfoliation of MS11Opa+-infected epithelial cells from T84 monolayers ([4]; MS11Opa+) | exfoliation of MS11ΔOpa-infected epithelial cells from T84 monolayers [4] | epithelial exfoliation with inhibitors alone [5] | Ng trans-migration across polarized human epithelial cells ([3]; FIG. 12C) | Ng growth [6] | epithelial exfoliation of human endocervical tissue explants [7] | pMLC accumulation at Ng adherent sites [8] | apical:lateral FIR of pMLC ([8]; ML-7 10 μM, PIK 100 μM) | Ng penetration into human endocervical epithelia ([9]; FIG. 12A-B) | percentage of epithelial cells with basally associated Ng ([9]; MS11ΔOpa, 24 h, ML-7 10 μM or PIK 100 μM, 27% without inhibitor)
1 | O=C(O)CN(CC(=O)O)c1ccccc1OCCOc1ccccc1N(CC(=O)O)CC(=O)O [BAPTA] | back to the basal level | decreased | decreased | decreased |  |  |  |  |  |  |  |  |  |  |  |  | 
2 | C[C@@H](N)[C@H]1CC[C@H](C(=O)Nc2ccncc2)CC1 [Y27632] |  |  | further increased |  | had no impact | had no impact | had no impact | did not significantly change the percentage of epithelial exfoliation | did not significantly change the percentage of epithelial exfoliation |  |  |  |  |  |  |  | 
3 | Cc1ccc2c(c1)C(=O)C1(O)CCN(c3ccccc3)C1=N2 (centres unmarked) [blebbistatin] |  |  |  |  |  |  |  |  |  | increased epithelial exfoliation |  |  |  |  |  |  | 
4 | PIK: peptide MLCK inhibitor comprising SEQ ID NO:1 (lys-arg-arg-tyr-lys-tyr-lys-lys-arg) with at least one D-amino acid; from U.S. Pat. No. 7,585,844 (KRRYKYKKR; also: at least one D-amino acid, places not given here) |  | significantly reduced | significantly reduced | significantly reduced | significantly reduced the transmigration | none of these inhibitors had any significant effect | none of these inhibitors had any significant effect |  | reduced the exfoliation | did not affect epithelial exfoliation | inhibits | suppresses Ng growth | decreased the epithelial exfoliation of human endocervical tissue explants to the basal level | significantly reduced | significantly reduced | inhibits Ng penetration; also recorded: robust inhibition | 7.1%
